Source: ChEMBL document CHEMBL4507319 (2021)

Columns and labels:
Conditions in all cases: Compound concentration 1.0 uM
[1] = molecular target: Focal adhesion kinase 1 (Homo sapiens) (UniProt Q05397); test: FAK(h) Eurofins kinase panel
[2] = molecular target: Death-associated protein kinase 2 (Homo sapiens) (UniProt Q9UIK4); test: DAPK2(h) Eurofins kinase panel
[3] = molecular target: Serine/threonine-protein kinase 33 (Homo sapiens) (UniProt Q9BYT3); test: STK33(h) Eurofins kinase panel
[4] = molecular target: Serine/threonine-protein kinase Chk2 (Homo sapiens) (UniProt O96017); test: CHK2(h) Eurofins kinase panel
Serine/threonine-protein kinase Chk2 (Homo sapiens), sequence (O96017 whole entry): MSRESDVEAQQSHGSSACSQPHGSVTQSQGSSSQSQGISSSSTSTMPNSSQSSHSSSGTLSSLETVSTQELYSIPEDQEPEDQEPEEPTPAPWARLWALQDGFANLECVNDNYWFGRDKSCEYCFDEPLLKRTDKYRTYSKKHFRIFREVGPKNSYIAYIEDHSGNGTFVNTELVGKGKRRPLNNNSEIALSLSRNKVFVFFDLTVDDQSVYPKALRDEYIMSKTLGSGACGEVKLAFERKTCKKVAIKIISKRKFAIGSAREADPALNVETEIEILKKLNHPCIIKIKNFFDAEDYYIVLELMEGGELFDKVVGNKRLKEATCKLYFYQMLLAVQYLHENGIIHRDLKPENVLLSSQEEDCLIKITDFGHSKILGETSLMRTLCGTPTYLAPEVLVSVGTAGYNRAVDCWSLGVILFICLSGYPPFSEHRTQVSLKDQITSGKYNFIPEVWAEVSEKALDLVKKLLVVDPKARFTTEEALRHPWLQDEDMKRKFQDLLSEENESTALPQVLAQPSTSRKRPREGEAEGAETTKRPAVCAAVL

[5] = molecular target: Ribosomal protein S6 kinase alpha-5 (Homo sapiens, UniProt O75582)
Ribosomal protein S6 kinase alpha-5, sequence (O75582 whole entry, looked up): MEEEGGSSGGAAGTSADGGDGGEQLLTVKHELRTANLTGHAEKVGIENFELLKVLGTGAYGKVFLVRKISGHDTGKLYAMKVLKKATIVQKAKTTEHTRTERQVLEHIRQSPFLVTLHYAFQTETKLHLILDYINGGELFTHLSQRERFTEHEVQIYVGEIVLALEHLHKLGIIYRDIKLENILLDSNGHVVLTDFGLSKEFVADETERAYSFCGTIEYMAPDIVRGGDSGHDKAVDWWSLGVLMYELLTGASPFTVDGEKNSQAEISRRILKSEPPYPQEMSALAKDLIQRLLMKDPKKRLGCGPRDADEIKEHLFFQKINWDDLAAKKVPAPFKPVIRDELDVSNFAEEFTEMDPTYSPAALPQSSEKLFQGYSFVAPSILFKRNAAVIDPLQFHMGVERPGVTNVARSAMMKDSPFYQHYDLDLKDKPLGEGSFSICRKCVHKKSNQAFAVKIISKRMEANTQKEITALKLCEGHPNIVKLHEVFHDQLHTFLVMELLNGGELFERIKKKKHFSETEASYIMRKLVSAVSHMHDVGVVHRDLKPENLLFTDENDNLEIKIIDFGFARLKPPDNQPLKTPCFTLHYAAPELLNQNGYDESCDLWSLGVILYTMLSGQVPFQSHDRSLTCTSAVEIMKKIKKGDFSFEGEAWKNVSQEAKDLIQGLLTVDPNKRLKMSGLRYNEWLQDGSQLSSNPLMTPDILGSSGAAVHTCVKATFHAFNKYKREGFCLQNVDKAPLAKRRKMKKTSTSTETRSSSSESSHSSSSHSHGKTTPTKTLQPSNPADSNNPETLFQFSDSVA

[6] = molecular target: Insulin receptor (Homo sapiens) (UniProt P06213); test: IR(h) Eurofins kinase panel
Insulin receptor (Homo sapiens), sequence (P06213 28-758 limits assumed): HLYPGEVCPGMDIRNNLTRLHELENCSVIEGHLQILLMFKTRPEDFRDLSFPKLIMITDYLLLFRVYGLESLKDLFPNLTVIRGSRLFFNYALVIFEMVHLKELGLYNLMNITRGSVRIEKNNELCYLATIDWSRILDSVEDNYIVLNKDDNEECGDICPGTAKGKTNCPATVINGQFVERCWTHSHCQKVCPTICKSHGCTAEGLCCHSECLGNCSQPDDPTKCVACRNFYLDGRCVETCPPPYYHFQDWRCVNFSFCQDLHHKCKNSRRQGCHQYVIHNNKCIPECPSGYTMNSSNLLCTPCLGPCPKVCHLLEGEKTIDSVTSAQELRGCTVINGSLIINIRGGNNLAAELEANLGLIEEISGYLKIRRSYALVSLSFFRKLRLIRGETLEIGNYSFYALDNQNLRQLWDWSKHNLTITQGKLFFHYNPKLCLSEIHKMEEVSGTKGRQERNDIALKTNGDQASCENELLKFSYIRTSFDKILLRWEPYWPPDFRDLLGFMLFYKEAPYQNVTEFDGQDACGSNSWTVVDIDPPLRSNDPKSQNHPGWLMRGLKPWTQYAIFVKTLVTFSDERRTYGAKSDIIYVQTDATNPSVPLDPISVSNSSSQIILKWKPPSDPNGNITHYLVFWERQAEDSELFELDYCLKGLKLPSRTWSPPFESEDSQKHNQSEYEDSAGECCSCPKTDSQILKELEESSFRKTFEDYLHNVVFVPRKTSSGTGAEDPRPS
Insulin receptor (Homo sapiens), sequence (P06213 763-1382 limits assumed): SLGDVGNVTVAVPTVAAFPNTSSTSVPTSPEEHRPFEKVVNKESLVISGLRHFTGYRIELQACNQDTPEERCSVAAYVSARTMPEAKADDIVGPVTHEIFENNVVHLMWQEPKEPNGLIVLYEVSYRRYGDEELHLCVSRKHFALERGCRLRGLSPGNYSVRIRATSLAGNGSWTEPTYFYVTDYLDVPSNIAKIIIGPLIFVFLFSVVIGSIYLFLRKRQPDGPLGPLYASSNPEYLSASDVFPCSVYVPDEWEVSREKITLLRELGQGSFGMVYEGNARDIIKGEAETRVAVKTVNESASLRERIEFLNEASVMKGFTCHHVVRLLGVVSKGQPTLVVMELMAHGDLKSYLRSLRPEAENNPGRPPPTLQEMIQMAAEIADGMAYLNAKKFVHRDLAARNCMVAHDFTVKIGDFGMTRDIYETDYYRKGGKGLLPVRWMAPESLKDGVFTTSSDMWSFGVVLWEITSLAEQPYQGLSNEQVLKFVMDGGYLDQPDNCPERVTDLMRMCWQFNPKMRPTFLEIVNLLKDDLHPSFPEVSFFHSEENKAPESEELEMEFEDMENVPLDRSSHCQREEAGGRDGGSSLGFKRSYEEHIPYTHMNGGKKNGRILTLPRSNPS

[7] = molecular target: T1, Dual specificity mitogen-activated protein kinase kinase 7 (Homo sapiens) (UniProt O14733); test: MKK7beta(h) Eurofins kinase panel
T1 sequence (whole entry): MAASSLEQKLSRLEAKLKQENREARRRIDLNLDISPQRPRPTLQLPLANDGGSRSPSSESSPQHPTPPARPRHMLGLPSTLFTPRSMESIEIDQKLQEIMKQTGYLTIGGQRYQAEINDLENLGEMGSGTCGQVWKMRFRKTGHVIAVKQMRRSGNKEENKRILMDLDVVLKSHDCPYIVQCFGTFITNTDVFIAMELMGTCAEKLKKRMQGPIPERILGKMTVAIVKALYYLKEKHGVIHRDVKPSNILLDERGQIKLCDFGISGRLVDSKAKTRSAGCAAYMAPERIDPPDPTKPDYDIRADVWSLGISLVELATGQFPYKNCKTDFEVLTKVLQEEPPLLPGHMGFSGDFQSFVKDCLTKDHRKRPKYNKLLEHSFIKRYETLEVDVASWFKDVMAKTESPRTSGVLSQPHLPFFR

[8] = molecular target: T2, Dual specificity protein kinase TTK (Homo sapiens) (UniProt P33981); test: TTK(h) Eurofins kinase panel
T2 sequence (whole entry): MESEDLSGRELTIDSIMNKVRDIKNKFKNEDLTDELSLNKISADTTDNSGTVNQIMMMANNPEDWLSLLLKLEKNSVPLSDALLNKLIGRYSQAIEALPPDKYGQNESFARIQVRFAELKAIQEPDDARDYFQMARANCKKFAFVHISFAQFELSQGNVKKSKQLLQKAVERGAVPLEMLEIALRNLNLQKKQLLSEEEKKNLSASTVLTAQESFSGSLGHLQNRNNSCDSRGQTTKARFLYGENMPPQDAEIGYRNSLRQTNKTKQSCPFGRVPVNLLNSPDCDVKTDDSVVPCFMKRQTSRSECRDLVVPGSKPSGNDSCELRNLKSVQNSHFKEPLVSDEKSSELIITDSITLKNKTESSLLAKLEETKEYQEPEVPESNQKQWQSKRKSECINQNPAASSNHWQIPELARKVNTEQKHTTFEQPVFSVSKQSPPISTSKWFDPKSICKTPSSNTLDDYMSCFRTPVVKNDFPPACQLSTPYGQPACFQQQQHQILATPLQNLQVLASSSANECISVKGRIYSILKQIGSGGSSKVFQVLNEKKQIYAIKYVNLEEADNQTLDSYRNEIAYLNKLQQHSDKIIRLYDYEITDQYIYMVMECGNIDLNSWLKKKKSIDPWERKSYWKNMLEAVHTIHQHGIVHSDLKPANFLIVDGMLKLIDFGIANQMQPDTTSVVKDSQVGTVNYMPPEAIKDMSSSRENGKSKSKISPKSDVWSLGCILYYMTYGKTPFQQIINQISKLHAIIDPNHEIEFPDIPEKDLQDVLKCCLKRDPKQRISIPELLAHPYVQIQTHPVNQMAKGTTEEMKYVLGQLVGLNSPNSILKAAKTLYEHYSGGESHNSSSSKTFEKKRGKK

[9] = molecular target: T3, Serine/threonine-protein kinase haspin (Homo sapiens) (UniProt Q8TF76); test: Haspin(h) Eurofins kinase panel
T3 sequence (whole entry): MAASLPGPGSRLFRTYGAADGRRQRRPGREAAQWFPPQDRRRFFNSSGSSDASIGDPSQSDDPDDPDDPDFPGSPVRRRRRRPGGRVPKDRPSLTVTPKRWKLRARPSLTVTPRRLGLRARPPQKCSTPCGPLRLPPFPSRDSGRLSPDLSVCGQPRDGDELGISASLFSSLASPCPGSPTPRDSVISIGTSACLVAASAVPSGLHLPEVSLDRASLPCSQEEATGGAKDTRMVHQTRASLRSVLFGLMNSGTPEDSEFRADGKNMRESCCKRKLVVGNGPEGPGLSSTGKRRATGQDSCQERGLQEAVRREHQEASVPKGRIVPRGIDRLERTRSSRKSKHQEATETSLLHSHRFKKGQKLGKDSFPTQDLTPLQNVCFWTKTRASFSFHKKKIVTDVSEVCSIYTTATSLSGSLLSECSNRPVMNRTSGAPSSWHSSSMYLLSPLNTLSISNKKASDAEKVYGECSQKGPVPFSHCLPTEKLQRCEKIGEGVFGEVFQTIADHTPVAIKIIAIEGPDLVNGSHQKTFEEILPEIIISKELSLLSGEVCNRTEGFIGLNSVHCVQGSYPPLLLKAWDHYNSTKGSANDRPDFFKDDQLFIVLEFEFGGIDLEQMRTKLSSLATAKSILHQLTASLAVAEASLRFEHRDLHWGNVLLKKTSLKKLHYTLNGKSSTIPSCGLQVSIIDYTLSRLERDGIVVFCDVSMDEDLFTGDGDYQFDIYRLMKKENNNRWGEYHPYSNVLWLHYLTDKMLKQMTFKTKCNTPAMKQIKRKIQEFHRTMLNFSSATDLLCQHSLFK

[10] = molecular target: Angiopoietin-1 receptor (Homo sapiens) (UniProt Q02763); test: Tie2 (h) Eurofins kinase panel
Angiopoietin-1 receptor (Homo sapiens), sequence (Q02763 whole entry): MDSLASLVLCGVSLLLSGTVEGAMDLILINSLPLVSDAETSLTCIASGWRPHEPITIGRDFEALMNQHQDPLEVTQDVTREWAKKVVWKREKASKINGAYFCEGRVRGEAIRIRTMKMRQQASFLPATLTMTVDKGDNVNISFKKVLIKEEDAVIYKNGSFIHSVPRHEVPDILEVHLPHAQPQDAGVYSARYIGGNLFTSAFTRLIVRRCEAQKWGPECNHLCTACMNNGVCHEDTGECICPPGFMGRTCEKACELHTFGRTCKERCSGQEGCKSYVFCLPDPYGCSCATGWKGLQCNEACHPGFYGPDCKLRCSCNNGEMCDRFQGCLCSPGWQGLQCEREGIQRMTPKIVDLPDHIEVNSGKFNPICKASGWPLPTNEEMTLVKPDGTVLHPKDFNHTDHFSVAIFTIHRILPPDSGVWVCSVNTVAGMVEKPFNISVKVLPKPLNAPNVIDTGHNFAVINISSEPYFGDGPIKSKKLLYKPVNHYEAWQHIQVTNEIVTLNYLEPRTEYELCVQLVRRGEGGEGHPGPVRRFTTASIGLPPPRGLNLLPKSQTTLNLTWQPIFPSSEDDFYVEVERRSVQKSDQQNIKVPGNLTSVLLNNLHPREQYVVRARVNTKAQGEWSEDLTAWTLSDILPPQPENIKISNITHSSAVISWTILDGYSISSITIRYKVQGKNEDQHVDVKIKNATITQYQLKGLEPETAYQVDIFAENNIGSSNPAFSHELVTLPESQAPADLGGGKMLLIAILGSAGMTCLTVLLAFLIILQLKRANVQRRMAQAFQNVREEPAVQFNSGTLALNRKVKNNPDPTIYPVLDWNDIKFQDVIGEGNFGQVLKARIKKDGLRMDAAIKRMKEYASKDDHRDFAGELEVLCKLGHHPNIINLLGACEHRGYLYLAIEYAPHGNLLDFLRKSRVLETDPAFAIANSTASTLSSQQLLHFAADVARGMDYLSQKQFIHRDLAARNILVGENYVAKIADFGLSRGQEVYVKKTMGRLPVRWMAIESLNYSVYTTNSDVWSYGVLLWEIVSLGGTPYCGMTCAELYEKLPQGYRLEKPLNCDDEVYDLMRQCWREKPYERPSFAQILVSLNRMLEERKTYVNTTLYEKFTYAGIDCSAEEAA

Measured: % residual kinase activity

Serine/threonine-protein kinase 33 (Homo sapiens), sequence (Q9BYT3 whole entry, looked up): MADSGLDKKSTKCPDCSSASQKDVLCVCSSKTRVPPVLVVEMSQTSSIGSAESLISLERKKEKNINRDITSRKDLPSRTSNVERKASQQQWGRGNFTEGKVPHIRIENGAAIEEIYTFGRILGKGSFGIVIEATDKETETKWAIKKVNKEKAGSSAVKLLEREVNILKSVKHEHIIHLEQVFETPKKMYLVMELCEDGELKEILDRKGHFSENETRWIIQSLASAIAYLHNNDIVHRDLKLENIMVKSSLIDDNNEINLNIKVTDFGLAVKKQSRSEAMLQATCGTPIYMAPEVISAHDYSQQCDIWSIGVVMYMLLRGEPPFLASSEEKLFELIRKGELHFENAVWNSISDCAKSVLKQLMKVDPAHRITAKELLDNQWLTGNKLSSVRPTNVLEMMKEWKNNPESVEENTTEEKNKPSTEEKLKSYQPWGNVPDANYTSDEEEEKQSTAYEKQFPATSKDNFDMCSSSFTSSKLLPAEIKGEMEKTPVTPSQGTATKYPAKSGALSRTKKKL
Death-associated protein kinase 2 (Homo sapiens), sequence (Q9UIK4 whole entry, looked up): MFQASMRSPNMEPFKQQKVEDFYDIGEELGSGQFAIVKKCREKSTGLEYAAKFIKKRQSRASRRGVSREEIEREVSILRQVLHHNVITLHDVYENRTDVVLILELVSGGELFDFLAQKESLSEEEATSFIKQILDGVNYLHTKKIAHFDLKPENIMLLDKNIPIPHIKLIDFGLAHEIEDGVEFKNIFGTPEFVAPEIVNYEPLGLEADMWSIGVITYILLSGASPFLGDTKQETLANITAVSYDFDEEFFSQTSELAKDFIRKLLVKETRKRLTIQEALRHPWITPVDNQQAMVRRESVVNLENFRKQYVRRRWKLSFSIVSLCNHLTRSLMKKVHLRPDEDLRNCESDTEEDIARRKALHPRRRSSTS

CCc1ccccc1C(=O)Nc1n[nH]c2c(C)c(F)c(C3C(C#N)=C(C)N(C)C(C)=C3C#N)cc12 [BAY-3827]
inactive: [1] 84% | [2] 96% | [3] 55% | [4] 100% | [5] 10% | [6] 115% | [7] 103% | [8] 90% | [9] 107% | [10] 81%
